Data on 21 molecules can be found in US9789096B2, “Methods and compositions for selective and targeted cancer therapy” (Board of Regents of the University of Texas System, priority 2013, dated 2017).

The structures appear in SMILES notation.

One assay deals with H2009. Description: Cell viability dose-response, H2009. It is filed as cell-based, human. Conditions: Homo sapiens, NCI-H2009; 12-point dose-response starting at 50 micromolar, 3-fold increments, in duplicate; read-out: toxicity data, H2009. On the procedure: (§1) FIG. 6A. […] Cell viability is plotted vs. compound concentration. Compound was added to cells plated at 15% confluence in 96-well plates in RPMI-1640 media supplemented with 5% Fetal Bovine Serum and 2 mM L-Glutamine. After 4 days of incubation, ATP levels were measured using Cell Titer Glo (Promega). Data are presented as the average of 2 replicates ±SEM.
(§2) Selectivity may be measured by the half maximal inhibitory concentration (IC50), which, as used herein, is a measure of the effectiveness of a compound in killing cells. This quantitative measure indicates how much of a particular compound is needed to kill a particular cell population by half (e.g., as indicated by the amount of ATP). […] The IC50 can be determined by constructing a dose-response curve. The lower the IC50, the higher the potency, and the greater the difference between IC50 values for different cell lines (e.g., sensitive lines vs. insensitive lines, and sensitive lines vs. normal lines) the greater the selectivity. […]
(§3) With this information, we synthesized and tested a series of small molecules derived in conception from the oxalamide and chromone scaffold including N-acyl ureas, as shown in Tables 6-8. Each compound was tested in a 12-point dose-response study starting at 50 micromolar and decreasing in 3-fold increments to sub-nanomolar concentrations, in duplicate. Additionally, one or more additional cell line was tested in the same way.
For `COc1ccc(CCNC(=O)NC(=O)c2cccc(-c3ccccc3)c2)cc1` [SW208394-1-A], the IC50 was ≥ 49.5 µM.

Take `COc1ccc(CCNC(=O)NC(=O)c2ccc(C(=O)O)cc2)cc1` [SW208395-1-A]: the IC50 was ≥ 49.5 µM.

As for `COc1ccc(CCNC(=O)NC(=O)c2cccc(-c3ccncc3)c2)cc1` [SW208396-1-A], the IC50 came out at 4.95 µM.

With `COc1ccc(CCNC(=O)NC(=O)c2ccc(C(=O)N3CCCCC3)cc2)cc1` [SW208397-1-A], the IC50 is 16.5 µM.

As for `COc1ccc(CCNC(=O)NC(=O)c2ccc(C(=O)Nc3ccccc3)cc2)cc1` [SW208398-1-A], the IC50 was 16.5 µM.

With `COc1ccc(CCNC(=O)NC(=O)c2cccc(C)c2)cc1` [SW208399-1-A], the IC50 turned out to be 16.5 µM.

As to `COc1ccc(CCNC(=O)NC(=O)c2cccc(Cl)c2)cc1` [SW208400-1-A], the IC50 was ≥ 49.5 µM.

`COc1ccc(CCNC(=O)NC(=O)c2ccc(Cl)cc2)cc1` [SW208401-1-A]: the IC50 is ≥ 49.5 µM.

For `COc1ccc(CCNC(=O)NC(=O)c2ccc(OC)cc2)cc1` [SW208402-1-A], the IC50 was ≥ 49.5 µM.

For the molecule `COc1ccc(CCNC(=O)NC(=O)c2cccc(OC)c2)cc1` [SW208403-1-A], the IC50 turned out to be 42.7 µM.

Take `COc1ccc(CCNC(=O)NC(=O)c2ccc(-c3ccncc3)cc2)cc1` [SW208404-1-A]: the IC50 was ≥ 49.5 µM.

The assay is the same for the next values; noted with them: Homo sapiens, NCI-H2009; Tables 3 and 4; read-out: IC50 (uM) vs indicated non-small cell lung cancer cell line H2009.
On to `COc1ccc2nc(NC(=O)c3ccc(C(=O)c4ccccc4)cc3)sc2n1` [SW208233-1], for which the IC50 is 49.5 µM.

The same assay, now with this note: Table 8; 12-point dose-response starting at 50 micromolar.
The term AC50 denotes the concentration giving half of the maximal activity seen. Low readings indicate greater potency, high ones weaker potency. Molecule `O=c1c(Oc2ccccc2F)coc2cc(OCc3cnn(-c4ccccc4)c3)ccc12` [SW043139-2-A] came in with an AC50 of 15.9 µM.

The next assay relates to H2122. Description: Cell viability dose-response, H2122. It is filed as cell-based, human. Conditions: Homo sapiens, NCI-H2122, 12-point dose-response starting at 50 micromolar, 3-fold increments, in duplicate; read-out: toxicity data, H2122. The method, boiled down: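 Cells plated at 15% confluence in RPMI-1640 with 5% FBS and 2 mM L-glutamine, treated with compound in a 12-point, 3-fold dilution series from 50 micromolar, in duplicate. ATP measured by Cell Titer Glo after 4 days; IC50 taken from the dose-response curve.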
Consider `COc1ccc(CCNC(=O)NC(=O)c2cccc(-c3ccccc3)c2)cc1` [SW208394-1-A], for which the IC50 is ≥ 49.5 µM.

As for `COc1ccc(CCNC(=O)NC(=O)c2ccc(C(=O)O)cc2)cc1` [SW208395-1-A], the IC50 is ≥ 49.5 µM.

With `COc1ccc(CCNC(=O)NC(=O)c2cccc(-c3ccncc3)c2)cc1` [SW208396-1-A], the IC50 was 2.23 µM.

For the molecule `COc1ccc(CCNC(=O)NC(=O)c2ccc(C(=O)N3CCCCC3)cc2)cc1` [SW208397-1-A], the IC50 was determined as 2.28 µM.

For the molecule `COc1ccc(CCNC(=O)NC(=O)c2ccc(C(=O)Nc3ccccc3)cc2)cc1` [SW208398-1-A], the IC50 came to 0.36 µM.

For the molecule `COc1ccc(CCNC(=O)NC(=O)c2cccc(C)c2)cc1` [SW208399-1-A], the IC50 was ≥ 49.5 µM.

In the case of `COc1ccc(CCNC(=O)NC(=O)c2cccc(Cl)c2)cc1` [SW208400-1-A], the IC50 is ≥ 49.5 µM.

As to `COc1ccc(CCNC(=O)NC(=O)c2ccc(Cl)cc2)cc1` [SW208401-1-A], the IC50 was found to be 0.15 µM.

Regarding `COc1ccc(CCNC(=O)NC(=O)c2ccc(OC)cc2)cc1` [SW208402-1-A], the IC50 came to 1.03 µM.

Turning to `COc1ccc(CCNC(=O)NC(=O)c2cccc(OC)c2)cc1` [SW208403-1-A], the IC50 stood at 1.09 µM.

Take `COc1ccc(CCNC(=O)NC(=O)c2ccc(-c3ccncc3)cc2)cc1` [SW208404-1-A]: the IC50 came to 21.8 µM.

The same assay, now with this note: Homo sapiens, NCI-H2122, Table 8; 12-point dose-response starting at 50 micromolar.
Take `O=c1c(-c2ccccn2)coc2cc(OCc3cnn(-c4ccccc4)c3)ccc12` [SW208732]: the AC50 is ≥ 49.5 µM.

Molecule `COc1cccc(-c2coc3cc(OCc4cnn(-c5ccccc5)c4)ccc3c2=O)c1` [SW208733] had an AC50 of 0.74 µM. In other words, the sub-micromolar range.

Turning to `O=c1c(-c2ccccc2F)coc2cc(OCc3cnn(-c4ccccc4)c3)ccc12` [SW208734], the concentration at half-maximal activity (AC50) was ≥ 49.5 µM.

As for `O=c1c(-c2cccc(F)c2)coc2cc(OCc3cnn(-c4ccccc4)c3)ccc12` [SW208735], the activity was half-maximal at 0.55 µM (AC50).

Molecule `O=c1c(-c2ccc(F)cc2)coc2cc(OCc3cnn(-c4ccccc4)c3)ccc12` [SW208737] had an AC50 of 0.27 µM.

The assay is the same for the next values; noted with them: Homo sapiens, NCI-H2122, Table 9, competitor; read-out: IC50 to H2122 cells.
With `O=C(Nc1nc2ccc(O)cc2s1)c1ccc(C(=O)c2ccccc2)cc1` [SW202864-1], the IC50 was 0.256 µM.

`COc1ccc(CCNC(=O)NC(=O)c2ccc(Cl)cc2)cc1` [SW208401-1-A]: the IC50 amounted to 0.09 µM.

Staying with this assay, now noted: Homo sapiens, NCI-H2122, Tables 3 and 4; read-out: IC50 (uM) vs indicated non-small cell lung cancer cell line H2122.
Turning to `O=C(Nc1nc2ccc(O)cc2s1)c1ccc(C(=O)c2ccccc2)cc1` [SW202864-1], the IC50 was 30.8 µM.

As for `COc1ccc2nc(NC(=O)c3ccc(C(=O)c4ccccc4)cc3)sc2n1` [SW208233-1], the IC50 is ≥ 49.5 µM.

On to `C#CCOc1ccc2nc(NC(=O)c3ccc(C4(C(F)(F)F)N=N4)cc3)sc2c1` [SW208700-1], for which the IC50 amounted to 7.92 µM.

On to `O=C(Nc1nc2c(s1)CCCC2)c1ccc(C(=O)c2ccccc2)cc1` [SW208741-1], for which the IC50 is 0.22 µM.

The same assay, now with this note: Table 8; 12-point dose-response starting at 50 micromolar.
`O=c1c(Oc2ccccc2F)coc2cc(OCc3cnn(-c4ccccc4)c3)ccc12` [SW043139-2-A]: the AC50 stood at 0.292 µM.

In another assay the test system is HCC44. Description: Cell viability dose-response, HCC44. The format is cell-based, human. The following applies: Homo sapiens, HCC44, 12-point dose-response starting at 50 micromolar, 3-fold increments, in duplicate; read-out: toxicity data, HCC44. On the procedure:
as §1, §2, §3
As to `COc1ccc(CCNC(=O)NC(=O)c2cccc(-c3ccccc3)c2)cc1` [SW208394-1-A], the IC50 is ≥ 49.5 µM.

`COc1ccc(CCNC(=O)NC(=O)c2ccc(C(=O)O)cc2)cc1` [SW208395-1-A]: the IC50 is ≥ 49.5 µM.

Consider `COc1ccc(CCNC(=O)NC(=O)c2cccc(-c3ccncc3)c2)cc1` [SW208396-1-A], for which the IC50 was ≥ 49.5 µM.

Take `COc1ccc(CCNC(=O)NC(=O)c2ccc(C(=O)N3CCCCC3)cc2)cc1` [SW208397-1-A]: the IC50 is ≥ 49.5 µM.

Consider `COc1ccc(CCNC(=O)NC(=O)c2ccc(C(=O)Nc3ccccc3)cc2)cc1` [SW208398-1-A], for which the IC50 was ≥ 49.5 µM.

With `COc1ccc(CCNC(=O)NC(=O)c2cccc(C)c2)cc1` [SW208399-1-A], the IC50 was ≥ 49.5 µM.

For `COc1ccc(CCNC(=O)NC(=O)c2cccc(Cl)c2)cc1` [SW208400-1-A], the IC50 was ≥ 49.5 µM.

On to `COc1ccc(CCNC(=O)NC(=O)c2ccc(Cl)cc2)cc1` [SW208401-1-A], for which the IC50 was 0.54 µM.

For the molecule `COc1ccc(CCNC(=O)NC(=O)c2ccc(OC)cc2)cc1` [SW208402-1-A], the IC50 is ≥ 49.5 µM.

Consider `COc1ccc(CCNC(=O)NC(=O)c2cccc(OC)c2)cc1` [SW208403-1-A], for which the IC50 is ≥ 49.5 µM.

Regarding `COc1ccc(CCNC(=O)NC(=O)c2ccc(-c3ccncc3)cc2)cc1` [SW208404-1-A], the IC50 was ≥ 49.5 µM.

Staying with this assay, now noted: Homo sapiens, HCC44, Table 8; 12-point dose-response starting at 50 micromolar.
In the case of `O=c1c(-c2ccccn2)coc2cc(OCc3cnn(-c4ccccc4)c3)ccc12` [SW208732], half-maximal activity (AC50) was put at 49.5 µM.

The molecule `COc1cccc(-c2coc3cc(OCc4cnn(-c5ccccc5)c4)ccc3c2=O)c1` [SW208733] returned an AC50 of 49.5 µM.

Molecule `O=c1c(-c2ccccc2F)coc2cc(OCc3cnn(-c4ccccc4)c3)ccc12` [SW208734] returned an AC50 of 49.5 µM. This counts as double-digit micromolar.

The molecule `O=c1c(-c2cccc(F)c2)coc2cc(OCc3cnn(-c4ccccc4)c3)ccc12` [SW208735] came in with a half-maximal activity concentration (AC50) of 49.5 µM. This lies in the double-digit micromolar range.

Molecule `O=c1c(-c2ccc(F)cc2)coc2cc(OCc3cnn(-c4ccccc4)c3)ccc12` [SW208737] showed an AC50 of 49.5 µM.

The same assay, now with this note: Homo sapiens, HCC44, Tables 3 and 4; read-out: IC50 (uM) vs indicated non-small cell lung cancer cell line HCC44.
For the molecule `O=C(Nc1nc2ccc(O)cc2s1)c1ccc(C(=O)c2ccccc2)cc1` [SW202864-1], the IC50 is 38.6 µM.

In the case of `COc1ccc2nc(NC(=O)c3ccc(C(=O)c4ccccc4)cc3)sc2n1` [SW208233-1], the IC50 came out at 49.5 µM.

For the molecule `C#CCOc1ccc2nc(NC(=O)c3ccc(C4(C(F)(F)F)N=N4)cc3)sc2c1` [SW208700-1], the IC50 stood at 49.5 µM.

For the molecule `O=C(Nc1nc2c(s1)CCCC2)c1ccc(C(=O)c2ccccc2)cc1` [SW208741-1], the IC50 was 3.64 µM.

Staying with this assay, now noted: Table 8; 12-point dose-response starting at 50 micromolar.
Take `O=c1c(Oc2ccccc2F)coc2cc(OCc3cnn(-c4ccccc4)c3)ccc12` [SW043139-2-A]: the activity was half-maximal at 49.5 µM (AC50).
